Laboratory results published in patent US20250214967A1, “FAK DEGRADERS, PHARMACEUTICAL COMPOSITIONS, AND THERAPEUTIC APPLICATIONS” (Berrybio (Shanghai) Limited, priority 2022, published 2025).

Molecular target: FAK (Homo sapiens (Human), UniProt Q05397)
Experiment: FAK Degradation Assay (Western blot, FAK/GAPDH)
Assay type: cell-based
Conditions: MDA-MB-231 cells, 24 h treatment, Western blot normalized to DMSO; for DC50: read-out: DC50 (half-maximal degradation concentration), FAK Degradation; for Dmax: read-out: Dmax (maximal degradation), FAK Degradation
Experimental: H2122 (4×10^5), MIA PaCa-2 (6×10s), or MDA-MB-231 cells (6×10^5) per well were seeded into a 6-well plate containing 2 mL of complete culture medium (RPMI-1640 for H2122 and MDA-MB-231, and DMEM/F12 for MIA PaCa-2, supplemented with 10% FBS and 1% penicillin/streptomycin). The cells were cultured overnight at 37° C. in the presence of 5% C02 before treated with a compound in a series of concentrations for 24 h. The cells were then washed with ice-cold Dulbecco's phosphate-buffered saline (DPBS). A radioimmuno-precipitation assay (RIPA) buffer was added to lyse the cells on ice for 20 min. The cells were then scrapped using cell scraper and collected in a 1.5 mL tube, which was centrifuged at 14,000 g and 4° C. for 15 min. The supernatant was collected and the total protein concentration of each sample was determined using a PIERCE™ BCA protein assay kit. The supernatant was diluted to the same protein concentration with the RIPA buffer after the BCA assay. Samples of the same protein amount were mixed with 4× a lithium dodecyl sulfate (LDS) sample buffer and boiled at 95° C. for 5 min. The denatured samples were used for electrophoresis.
For Western blot, the same volume containing ˜50 μg protein for each sample was loaded onto 4-12% Bis-Tris protein gel. The gel was run at 80 V for 0.5 h and at 120 V for 1 h. When the electrophoresis was completed, an IBLOT™ 2 gel transfer device was used to transfer FAK and GAPDH proteins at 20 V for 7 min. All the membranes were blocked in 5% nonfat dry milk in a TBST buffer at RT for 1 h and then incubated with primary antibodies (anti-FAK and anti-GAPDH) in a TBST buffer containing 5% BSA at 4° C. overnight. The membranes were washed with the TBST buffer and then incubated with secondary antibodies (goat anti-rabbit IgG H&L for FAK and goat anti-mouse IgG H&L for GAPDH) at room temperature for 1 h. Blots were visualized using an IMAGEQUANT™ LAS-4000. The chemiluminescent signals from ECL™ Western blotting reagents were captured. The band integrated intensity from each 16-bit blot image was used for quantitation. The FAK/GAPDH signal ratios of each sample were normalized using DMSO as a control and the normalized data for each compound were used to obtain its half-maximal degradation concentration (DC50) and maximal degradation (Dmax).

Sequence of FAK (Q05397 whole entry): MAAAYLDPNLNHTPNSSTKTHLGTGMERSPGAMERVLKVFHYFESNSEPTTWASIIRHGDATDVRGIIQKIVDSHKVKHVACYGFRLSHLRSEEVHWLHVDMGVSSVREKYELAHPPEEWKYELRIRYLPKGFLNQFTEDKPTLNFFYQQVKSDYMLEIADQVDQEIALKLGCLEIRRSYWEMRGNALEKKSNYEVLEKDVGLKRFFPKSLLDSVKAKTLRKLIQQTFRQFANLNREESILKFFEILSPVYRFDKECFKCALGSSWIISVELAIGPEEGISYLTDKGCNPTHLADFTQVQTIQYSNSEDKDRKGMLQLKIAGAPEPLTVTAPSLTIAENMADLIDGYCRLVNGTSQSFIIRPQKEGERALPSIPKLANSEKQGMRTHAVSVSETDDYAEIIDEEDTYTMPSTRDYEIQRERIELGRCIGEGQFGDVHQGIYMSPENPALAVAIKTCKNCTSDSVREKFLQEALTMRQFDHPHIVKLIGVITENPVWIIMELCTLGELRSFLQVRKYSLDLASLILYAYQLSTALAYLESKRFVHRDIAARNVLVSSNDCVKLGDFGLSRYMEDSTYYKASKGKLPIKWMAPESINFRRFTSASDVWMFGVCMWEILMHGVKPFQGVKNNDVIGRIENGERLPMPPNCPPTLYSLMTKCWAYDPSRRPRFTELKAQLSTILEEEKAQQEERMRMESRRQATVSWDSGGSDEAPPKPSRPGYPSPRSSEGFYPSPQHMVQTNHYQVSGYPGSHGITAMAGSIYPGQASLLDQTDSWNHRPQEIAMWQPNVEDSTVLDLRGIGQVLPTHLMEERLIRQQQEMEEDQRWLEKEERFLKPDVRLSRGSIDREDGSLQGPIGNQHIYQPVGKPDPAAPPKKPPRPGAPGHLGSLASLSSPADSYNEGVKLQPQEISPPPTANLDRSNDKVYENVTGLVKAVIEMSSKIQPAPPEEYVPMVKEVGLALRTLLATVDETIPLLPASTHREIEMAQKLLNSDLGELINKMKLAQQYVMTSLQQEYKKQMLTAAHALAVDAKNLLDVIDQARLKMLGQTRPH

SMILES	DC50	Dmax
CNC(=O)c1ccccc1Nc1cc(Nc2cc(F)c(CNC3CCN(c4ccc5c(c4)C(=O)N(C4CCC(=O)NC4=O)C5=O)CC3)cc2OC)ncc1C(F)(F)F (stereo not shown) [Compound A54, 2-((2-((4-(((1-(2-(2,6-Dioxopiperidin-3-yl)-1,3-dioxoisoindolin-5-yl)piperidin-4-yl)amino)methyl)-5-fluoro-2-methoxyphenyl)amino)-5-(trifluoromethyl)pyridin-4-yl)amino)-N-methylbenzamide]	0.98 nM	96%
CN1Cc2cccc(Oc3nc(Nc4ccc(CNC5CCN(c6ccc7c(c6)C(=O)N(C6CCC(=O)NC6=O)C7=O)CC5)cc4)ncc3C(F)(F)F)c2C1=O (stereo not shown) [Compound A28, 2-(2,6-dioxopiperidin-3-yl)-5-(4-((4-((4-((2-methyl-3-oxoisoindolin-4-yl)oxy)-5-(trifluoromethyl)pyrimidin-2-yl)amino)benzyl)amino)piperidin-1-yl)isoindoline-1,3-dione]	0.87 nM	91%
CN(c1ccccc1CNc1cc(Nc2ccc(CNC3CCN(c4ccc5c(c4)C(=O)N(C4CCC(=O)NC4=O)C5=O)CC3)cc2)ncc1C(F)(F)F)S(C)(=O)=O (stereo not shown) [Compound A14, N-(2-(((2-((4-(((1-(2-(2,6-dioxopiperidin-3-yl)-1,3-dioxoisoindolin-5-yl)piperidin-4-yl)amino)methyl)phenyl)amino)-5-(trifluoromethyl)pyridin-4-yl)amino)methyl)phenyl)-N-methylmethanesulfonamide]	10 nM	93%
CN1Cc2cccc(Oc3nc(Nc4ccc(CN[C@@H]5CCN(c6ccc7c(c6)C(=O)N(C6CCC(=O)NC6=O)C7=O)C5)c(F)c4)ncc3C(F)(F)F)c2C1=O (stereo partly drawn) [Compound A57, 2-(2,6-Dioxopiperidin-3-yl)-5-((R)-3-((2-fluoro-4-((4-((2-methyl-3-oxoisoindolin-4-yl)oxy)-5-(trifluoromethyl)pyrimidin-2-yl)amino)benzyl)amino)pyrrolidin-1-yl)isoindoline-1,3-dione]	1 nM	86%
CNC(=O)c1ccccc1Nc1nc(Nc2ccc3c(c2)CC(=O)N3CC2CCN(c3ccc4c(c3)C(=O)N(C3CCC(=O)NC3=O)C4=O)CC2)ncc1C(F)(F)F (stereo not shown) [Compound A38, 2-((2-((1-((1-(2-(2,6-dioxopiperidin-3-yl)-1,3-dioxoisoindolin-5-yl)piperidin-4-yl)methyl)-2-oxoindolin-5-yl)amino)-5-(trifluoromethyl)pyrimidin-4-yl)amino)-N-methylbenzamide]	0.84 nM	88%
COc1cc(CNC2CCN(c3ccc4c(c3)C(=O)N(C3CCC(=O)NC3=O)C4=O)CC2)c(F)cc1Nc1ncc(C(F)(F)F)c(Oc2cccc3c2C(=O)N(C)C3)n1 (stereo not shown) [Compound A52, 2-(2,6-Dioxopiperidin-3-yl)-5-(4-((2-fluoro-5-methoxy-4-((4-((2-methyl-3-oxoisoindolin-4-yl)oxy)-5-(trifluoromethyl)pyrimidin-2-yl)amino)benzyl)amino)piperidin-1-yl)-isoindoline-1,3-dione]	0.78 nM	95%
CN(c1nccnc1CNc1nc(Nc2ccc(OCCCCCCCOc3ccc4c(c3)C(=O)N(C3CCC(=O)NC3=O)C4=O)cc2)ncc1C(F)(F)F)S(C)(=O)=O (stereo not shown) [Compound A9, N-(3-(((2-((4-((7-((2-(2,6-Dioxopiperidin-3-yl)-1,3-dioxoisoindolin-5-yl)oxy)-heptyl)oxy)phenyl)amino)-5-(trifluoromethyl)pyrimidin-4-yl)amino)methyl)pyrazin-2-yl)-N-methylmethanesulfonamide]	14 nM	100%
CN(c1nccnc1CNc1nc(Nc2cccc(C(=O)NC3CCN(CC4CCN(c5ccc6c(c5)C(=O)N(C5CCC(=O)NC5=O)C6=O)CC4)CC3)c2)ncc1C(F)(F)F)S(C)(=O)=O (stereo not shown) [Compound A10, N-(1-((1-(2-(2,6-Dioxopiperidin-3-yl)-1,3-dioxoisoindolin-5-yl)piperidin-4-yl)-methyl)piperidin-4-yl)-3-((4-(((3-(N-methylmethylsulfonamido)pyrazin-2-yl)methyl)amino)-5-(trifluoromethyl)pyrimidin-2-yl)amino)benzamide]	2.1 nM	98%
CN(c1ccccc1CNc1cc(Nc2ccc(CNC3CCN(c4ccc5c(c4)C(=O)N(C4CCC(=O)NC4=O)C5=O)CC3)c(F)c2)ncc1C(F)(F)F)S(C)(=O)=O (stereo not shown) [Compound A35, N-(2-(((2-((4-(((1-(2-(2,6-Dioxopiperidin-3-yl)-1,3-dioxoisoindolin-5-yl)-piperidin-4-yl)amino)methyl)-3-fluorophenyl)amino)-5-(trifluoromethyl)pyridin-4-yl)amino)-methyl)phenyl)-N-methylmethanesulfonamide]	8.1 nM	95%
CNC(=O)c1ccccc1Nc1cc(Nc2ccc(CNC3CCN(c4ccc5c(c4)C(=O)N(C4CCC(=O)NC4=O)C5=O)CC3)cc2)ncc1C(F)(F)F (stereo not shown) [Compound A22, 2-((2-((4-(((1-(2-(2,6-Dioxopiperidin-3-yl)-1,3-dioxoisoindolin-5-yl)piperidin-4-yl)amino)methyl)phenyl)amino)-5-(trifluoromethyl}pyridin-4-yl)amino)-N-methylbenzamide]	3.5 nM	93%
CN(c1cccc(CNc2cc(Nc3ccc(CNC4CCN(c5ccc6c(c5)C(=O)N(C5CCC(=O)NC5=O)C6=O)CC4)c(F)c3)ncc2C(F)(F)F)c1)S(C)(=O)=O (stereo not shown) [Compound A31, N-(3-(((2-((4-(((1-(2-(2,6-Dioxopiperidin-3-yl)-1,3-dioxoisoindolin-5-yl)-piperidin-4-yl)amino)methyl)-3-fluorophenyl)amino)-5-(trifluoromethyl)pyridin-4-yl)amino)-methyl)phenyl)-N-methylmethanesulfonamide]	6.1 nM	98%
CNC(=O)c1ccccc1Nc1cc(Nc2ccc(C(=O)NC3CCN(c4ccc5c(c4)C(=O)N(C4CCC(=O)NC4=O)C5=O)CC3)cc2)ncc1C(F)(F)F (stereo not shown) [Compound A21, 2-((2-((4-((1-(2-(2,6-Dioxopiperidin-3-yl)-1,3-dioxoisoindolin-5-yl)piperidin-4-yl)carbamoyl)phenyl)amino)-5-(trifluoromethyl)pyridin-4-yl)amino)-N-methylbenzamide]	1.3 nM	93%
CN(c1nccnc1CNc1nc(Nc2ccc(CNC3CCN(c4ccc(C5CCC(=O)NC5=O)cc4)CC3)cc2)ncc1C(F)(F)F)S(C)(=O)=O (stereo not shown) [Compound B1, N-(3-(((2-((4-(((1-(4-(2,6-Dioxopiperidin-3-yl)phenyl)piperidin-4-yl)amino)-methyl)phenyl)amino)-5-(trifluoromethyl)pyrimidin-4-yl)amino)methyl)pyrazin-2-yl)-N-methyl-methanesulfonamide]	1.2 nM	92%
CS(=O)(=O)c1cccc(CNc2nc(Nc3ccc4c(c3)CC(=O)N4CC3CCN(c4ccc5c(c4)C(=O)N(C4CCC(=O)NC4=O)C5=O)CC3)ncc2C(F)(F)F)c1 (stereo not shown) [Compound A23, 2-(2,6-dioxopiperidin-3-yl)-5-(4-((5-((4-((3-(methylsulfonyl)benzyl)amino)-5-(trifluoromethyl)pyrimidin-2-yl)amino)-2-oxoindolin-1-yl)methyl)piperidin-1-yl)isoindoline-1,3-dione]	1.3 nM	96%
O=C1CCC(N2C(=O)c3ccc(N4CCC(NCc5ccc(Nc6ncc(C(F)(F)F)c(Oc7cccc8c7C(=O)CC8)n6)cc5)CC4)cc3C2=O)C(=O)N1 (stereo not shown) [Compound A27, 2-(2,6-dioxopiperidin-3-yl)-5-(4-((4-((4-((3-oxo-2,3-dihydro-1H-inden-4-yl)oxy)-5-(trifluoromethyl)pyrimidin-2-yl)amino)benzyl)amino)piperidin-1-yl)isoindoline-1,3-dione]	1.3 nM	94%
CNC(=O)c1ccccc1Nc1nc(Nc2ccc(CNC3CCN(c4ccc5c(c4)C(=O)N(C4CCC(=O)NC4=O)C5=O)CC3)cc2)ncc1C(F)(F)F (stereo not shown) [Compound A25, 2-((2-((4-(((1-(2-(2,6-dioxopiperidin-3-yl)-1,3-dioxoisoindolin-5-yl)piperidin-4-yl)amino)methyl)phenyl)amino)-5-(trifluoromethyl)pyrimidin-4-yl)amino)-N-methylbenzamide]	0.13 nM	97%
CNC(=O)c1ccccc1Nc1cc(Nc2ccc(CN[C@H]3CCN(c4ccc5c(c4)C(=O)N(C4CCC(=O)NC4=O)C5=O)C3)cc2)ncc1C(F)(F)F (stereo partly drawn) [Compound A33, 2-((2-((4-((((3S)-1-(2-(2,6-Dioxopiperidin-3-yl)-1,3-dioxoisoindolin-5-yl)-pyrrolidin-3-yl)amino)methyl)phenyl)amino)-5-(trifluoromethyl)pyridin-4-yl)amino)-N-methylbenzamide]	0.86 nM	94%
